# From patent EP2468718A1, “Cabanillasin, a new antifungal compound, produced by entomopathogenic xenorhabdus cabanillasii” (Nosopharm, priority 2010, dated 2012)
# Read-outs that look alike come from different tables or passages of the source.
# Assays:
# Experiment in all cases: Antifungal susceptibility testing, NCCLS M27-A2 broth microdilution (yeasts)
# Format in all cases: cell-based
# [1] = system: Candida Glabrata ATCC 90030; conditions: Nakaseomyces glabratus, ATCC90030; for inhibition at 0.09 µg/mL / inhibition at 0.19 µg/mL / inhibition at 0.39 µg/mL / inhibition at 0.78 µg/mL / inhibition at 1.56 µg/mL / inhibition at 3.12 µg/mL / inhibition at 6.25 µg/mL / inhibition at 12.5 µg/mL / inhibition at 25 µg/mL / inhibition at 50 µg/mL: read-out: % of growth inhibition
# Procedure: (§1) Cabanillasin activity was tested against different fungal human pathogens: ascomycetes yeasts (Candida albicans ATCC 90029, Candida Glabrata ATCC 90030, Candida krusei ATCC 6258 and Candida lusitaniae CBS 6936), basidiomycetes yeasts (Cryptococcus neoformans clinical strain), ascomycetes filamentous fungi (Aspergilus fumigatus clinical strain, Fusarium oxysporum clinical strain) and zygomycetes filamentous fungi (Rhizopus oryzae environemental strain) by the M38-A microdilution method with RPMI 1640 medium (RPMI 1640, MOPS 160 mM, glucose 18 g/L, pH 7) as recommended in the […]. The NCCLS M27-A2 broth microdilution method (NCCLS) was used when yeasts were tested.
# (§2) Yeasts and filamentous inoculi were prepared on YPD medium (yeast extract 10 g/L, peptone 10 g/L and glucose 20 g/L) and Malt medium (malt extract 20 g/L) respectively. The densities of inoculi were adjusted by dilution in RPMI 1640 broth to a value ranged from 5.10^2 to 5.10^3 CFU/mL for yeasts isolates and 5.10^3 to 5.10^4 CFU/mL for filamentous fungi. Microdilution trays (96 U-bottom shaped) containing 190 µL fungal inoculum were added with 10 µL Cabanillasin solution (final concentration ranging from 50 to 0.098 mg/L for all fungi). After inoculation of the trays, all microdilution trays were incubated at 35°C in ambient air. The culture absorbance was measured at 600 nm, 24 h and 48 h after the beginning of the experiments for the yeasts and 48 h and 72 h after the beginning of the experiments for filamentous fungi and Cryptococcus neoformans. The activity results correspond to a percentage of growth inhibition ((1-Abs600 nm culture with Cabanillasin)/ Abs600 nm culture without Cabanillasin) x 100.
# (§3) The IC50 value is the concentration at which inhibition of growth is equal to 50%. MICs for Candida species were determined at 24 h and 48 h and corresponded to 100% of growth inhibition. Amphotericin B was provided as standard (final concentration ranging from 16 to 0.03 mg/L for all fungi). Experiments were done in duplicate.
# Candida krusei ATCC 6258 = conditions: Pichia kudriavzevii, ATCC6258; for inhibition at 0.09 µg/mL / inhibition at 0.19 µg/mL / inhibition at 0.39 µg/mL / inhibition at 0.78 µg/mL / inhibition at 1.56 µg/mL / inhibition at 3.12 µg/mL / inhibition at 6.25 µg/mL / inhibition at 12.5 µg/mL / inhibition at 25 µg/mL / inhibition at 50 µg/mL: read-out: % of growth inhibition
# Procedure: as §1, §2, §3
# [2] = system: Candida lusitaniae CBS 6936; conditions: Clavispora lusitaniae, CBS6936; for inhibition at 0.09 µg/mL / inhibition at 0.19 µg/mL / inhibition at 0.39 µg/mL / inhibition at 0.78 µg/mL / inhibition at 1.56 µg/mL / inhibition at 3.12 µg/mL / inhibition at 6.25 µg/mL / inhibition at 12.5 µg/mL / inhibition at 25 µg/mL / inhibition at 50 µg/mL: read-out: % of growth inhibition
# Procedure: as §1, §2, §3
# [3] = system: Cryptococcus neoformans clinical strain; conditions: for inhibition at 0.09 µg/mL / inhibition at 0.19 µg/mL / inhibition at 0.39 µg/mL / inhibition at 0.78 µg/mL / inhibition at 1.56 µg/mL / inhibition at 3.12 µg/mL / inhibition at 6.25 µg/mL / inhibition at 12.5 µg/mL / inhibition at 25 µg/mL / inhibition at 50 µg/mL: read-out: % of growth inhibition
# Procedure: as §1, §2, §3
# [4] = system: Candida albicans ATCC 90029; conditions: for inhibition at 0.09 µg/mL: ATCC90029, 0.09 µg/mL; for inhibition at 0.09 µg/mL / inhibition at 0.19 µg/mL / inhibition at 0.39 µg/mL / inhibition at 0.78 µg/mL / inhibition at 1.56 µg/mL / inhibition at 3.12 µg/mL / inhibition at 6.25 µg/mL / inhibition at 12.5 µg/mL / inhibition at 25 µg/mL / inhibition at 50 µg/mL: read-out: % of growth inhibition; for inhibition at 0.19 µg/mL: ATCC90029, 0.19 µg/mL; for inhibition at 0.39 µg/mL: ATCC90029, 0.39 µg/mL; for inhibition at 0.78 µg/mL: ATCC90029, 0.78 µg/mL; for inhibition at 1.56 µg/mL: ATCC90029, 1.56 µg/mL; for inhibition at 3.12 µg/mL: ATCC90029, 3.12 µg/mL; for inhibition at 6.25 µg/mL: ATCC90029, 6.25 µg/mL; for inhibition at 12.5 µg/mL: ATCC90029, 12.5 µg/mL; for inhibition at 25 µg/mL: ATCC90029, 25 µg/mL; for inhibition at 50 µg/mL: ATCC90029, 50 µg/mL
# Procedure: as §1, §2, §3
# [5] = 24 h of incubation, 100% of growth inhibition
smiles,measurement,setting,value
CC(=O)NC(=N)NCCCCNC(=N)NCCCCNC(=N)NCCCCNC(=N)NCCCCN [Cabanillasin],inhibition at 0.09 µg/mL,[1]; 24 h incubation,0%
same,inhibition at 0.09 µg/mL,[1]; 48 h incubation,0%
same,inhibition at 0.19 µg/mL,[1]; 24 h incubation,5.5%
same,inhibition at 0.19 µg/mL,[1]; 48 h incubation,0%
same,inhibition at 0.39 µg/mL,[1]; 24 h incubation,11.4%
same,inhibition at 0.39 µg/mL,[1]; 48 h incubation,0%
same,inhibition at 0.78 µg/mL,[1]; 24 h incubation,15.5%
same,inhibition at 0.78 µg/mL,[1]; 48 h incubation,0%
same,inhibition at 1.56 µg/mL,[1]; 24 h incubation,28%
same,inhibition at 1.56 µg/mL,[1]; 48 h incubation,0%
same,inhibition at 3.12 µg/mL,[1]; 24 h incubation,31%
same,inhibition at 3.12 µg/mL,[1]; 48 h incubation,0%
same,inhibition at 6.25 µg/mL,[1]; 24 h incubation,49.3%
same,inhibition at 6.25 µg/mL,[1]; 48 h incubation,0%
same,inhibition at 12.5 µg/mL,[1]; 24 h incubation,66.2%
same,inhibition at 12.5 µg/mL,[1]; 48 h incubation,18.5%
same,inhibition at 25 µg/mL,[1]; 24 h incubation,61.4%
same,inhibition at 25 µg/mL,[1]; 48 h incubation,44%
same,inhibition at 50 µg/mL,[1]; 24 h incubation,59%
same,inhibition at 50 µg/mL,[1]; 48 h incubation,57%
same,IC50,[1]; 24 h of incubation,6.25 µg/mL
same,inhibition at 0.09 µg/mL,Candida krusei ATCC 6258; 24 h incubation,0%
same,inhibition at 0.09 µg/mL,Candida krusei ATCC 6258; 48 h incubation,0%
same,inhibition at 0.19 µg/mL,Candida krusei ATCC 6258; 24 h incubation,0%
same,inhibition at 0.19 µg/mL,Candida krusei ATCC 6258; 48 h incubation,0%
same,inhibition at 0.39 µg/mL,Candida krusei ATCC 6258; 24 h incubation,0%
same,inhibition at 0.39 µg/mL,Candida krusei ATCC 6258; 48 h incubation,0%
same,inhibition at 0.78 µg/mL,Candida krusei ATCC 6258; 24 h incubation,0%
same,inhibition at 0.78 µg/mL,Candida krusei ATCC 6258; 48 h incubation,0%
same,inhibition at 1.56 µg/mL,Candida krusei ATCC 6258; 24 h incubation,0%
same,inhibition at 1.56 µg/mL,Candida krusei ATCC 6258; 48 h incubation,0%
same,inhibition at 3.12 µg/mL,Candida krusei ATCC 6258; 24 h incubation,9%
same,inhibition at 3.12 µg/mL,Candida krusei ATCC 6258; 48 h incubation,0%
same,inhibition at 6.25 µg/mL,Candida krusei ATCC 6258; 24 h incubation,79%
same,inhibition at 6.25 µg/mL,Candida krusei ATCC 6258; 48 h incubation,31.2%
same,inhibition at 12.5 µg/mL,Candida krusei ATCC 6258; 24 h incubation,91%
same,inhibition at 12.5 µg/mL,Candida krusei ATCC 6258; 48 h incubation,83%
same,inhibition at 25 µg/mL,Candida krusei ATCC 6258; 24 h incubation,100%
same,inhibition at 25 µg/mL,Candida krusei ATCC 6258; 48 h incubation,88.5%
same,inhibition at 50 µg/mL,Candida krusei ATCC 6258; 24 h incubation,100%
same,inhibition at 50 µg/mL,Candida krusei ATCC 6258; 48 h incubation,92.9%
same,IC50,Candida krusei ATCC 6258; 24 h of incubation,6.25 µg/mL
same,MIC,Candida krusei ATCC 6258; [5],25 µg/mL
same,inhibition at 0.09 µg/mL,[2]; 24 h incubation,11.7%
same,inhibition at 0.09 µg/mL,[2]; 48 h incubation,0%
same,inhibition at 0.19 µg/mL,[2]; 24 h incubation,14.5%
same,inhibition at 0.19 µg/mL,[2]; 48 h incubation,0%
same,inhibition at 0.39 µg/mL,[2]; 24 h incubation,11.5%
same,inhibition at 0.39 µg/mL,[2]; 48 h incubation,0%
same,inhibition at 0.78 µg/mL,[2]; 24 h incubation,20.2%
same,inhibition at 0.78 µg/mL,[2]; 48 h incubation,0%
same,inhibition at 1.56 µg/mL,[2]; 24 h incubation,64.8%
same,inhibition at 1.56 µg/mL,[2]; 48 h incubation,0%
same,inhibition at 3.12 µg/mL,[2]; 24 h incubation,86.7%
same,inhibition at 3.12 µg/mL,[2]; 48 h incubation,57%
same,inhibition at 6.25 µg/mL,[2]; 24 h incubation,94.7%
same,inhibition at 6.25 µg/mL,[2]; 48 h incubation,74.6%
same,inhibition at 12.5 µg/mL,[2]; 24 h incubation,97.7%
same,inhibition at 12.5 µg/mL,[2]; 48 h incubation,86.1%
same,inhibition at 25 µg/mL,[2]; 24 h incubation,100%
same,inhibition at 25 µg/mL,[2]; 48 h incubation,95.9%
same,inhibition at 50 µg/mL,[2]; 24 h incubation,100%
same,inhibition at 50 µg/mL,[2]; 48 h incubation,100%
same,IC50,[2]; 24 h of incubation,1.56 µg/mL
same,MIC,[2]; [5],25 µg/mL
same,inhibition at 0.09 µg/mL,[3]; 48 h incubation,0%
same,inhibition at 0.09 µg/mL,[3]; 72 h incubation,0%
same,inhibition at 0.19 µg/mL,[3]; 48 h incubation,0%
same,inhibition at 0.19 µg/mL,[3]; 72 h incubation,0%
same,inhibition at 0.39 µg/mL,[3]; 48 h incubation,0%
same,inhibition at 0.39 µg/mL,[3]; 72 h incubation,0%
same,inhibition at 0.78 µg/mL,[3]; 48 h incubation,0%
same,inhibition at 0.78 µg/mL,[3]; 72 h incubation,0%
same,inhibition at 1.56 µg/mL,[3]; 48 h incubation,0%
same,inhibition at 1.56 µg/mL,[3]; 72 h incubation,0%
same,inhibition at 3.12 µg/mL,[3]; 48 h incubation,23.8%
same,inhibition at 3.12 µg/mL,[3]; 72 h incubation,0%
same,inhibition at 6.25 µg/mL,[3]; 48 h incubation,32%
same,inhibition at 6.25 µg/mL,[3]; 72 h incubation,0%
same,inhibition at 12.5 µg/mL,[3]; 48 h incubation,47.3%
same,inhibition at 12.5 µg/mL,[3]; 72 h incubation,0%
same,inhibition at 25 µg/mL,[3]; 48 h incubation,65.3%
same,inhibition at 25 µg/mL,[3]; 72 h incubation,0%
same,inhibition at 50 µg/mL,[3]; 48 h incubation,63.8%
same,inhibition at 50 µg/mL,[3]; 72 h incubation,0%
same,IC50,[3]; after 48 h,25 µg/mL
same,IC50,[3]; after 72 h,> 50 µg/mL
same,inhibition at 0.09 µg/mL,[4]; 24 h incubation,34%
same,inhibition at 0.09 µg/mL,[4]; 48 h incubation,0%
same,inhibition at 0.19 µg/mL,[4]; 24 h incubation,37%
same,inhibition at 0.19 µg/mL,[4]; 48 h incubation,0%
same,inhibition at 0.39 µg/mL,[4]; 24 h incubation,34%
same,inhibition at 0.39 µg/mL,[4]; 48 h incubation,0%
same,inhibition at 0.78 µg/mL,[4]; 24 h incubation,50.5%
same,inhibition at 0.78 µg/mL,[4]; 48 h incubation,0%
same,inhibition at 1.56 µg/mL,[4]; 24 h incubation,46.3%
same,inhibition at 1.56 µg/mL,[4]; 48 h incubation,0%
same,inhibition at 3.12 µg/mL,[4]; 24 h incubation,45.4%
same,inhibition at 3.12 µg/mL,[4]; 48 h incubation,0%
same,inhibition at 6.25 µg/mL,[4]; 24 h incubation,47.7%
same,inhibition at 6.25 µg/mL,[4]; 48 h incubation,0%
same,inhibition at 12.5 µg/mL,[4]; 24 h incubation,70.7%
same,inhibition at 12.5 µg/mL,[4]; 48 h incubation,0%
same,inhibition at 25 µg/mL,[4]; 24 h incubation,71%
same,inhibition at 25 µg/mL,[4]; 48 h incubation,0%
same,inhibition at 50 µg/mL,[4]; 24 h incubation,81%
same,inhibition at 50 µg/mL,[4]; 48 h incubation,18%
same,IC50,"[4]; ATCC90029, 24 h of incubation",0.78 µg/mL
